Results on 26 compounds are retold here after patent US20230117034A1, “PYRAZOLOTRIAZINES” (Bayer Aktiengesellschaft, priority 2019, published 2023).

Assay [1] concerns the target T1, CYCLIN K (nuclear staining in CAL-120 cells) (Homo sapiens, UniProt O75909).
T1 construct: endogenous in cells; host or cells: CAL-120 human breast cancer cells (DSMZ ACC 459)
As to the kind of experiment: CYCLIN K nuclear protein level: immunofluorescence high content analysis (CAL-120). Format: cell-based. As to conditions: 24 h, 50% reduction of nuclear CCNK staining intensity, median, read-out: CYCLIN K degradation IF, DC50-[mol/l] (median). An outline of the steps: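 CAL-120 breast cancer cells treated in dose-response for 24 h at 37 °C, PFA-fixed and immunostained for cyclin K with Hoechst counterstain. Confocal imaging quantified nuclear intensity; DC50 is the concentration giving 50% reduction of nuclear CCNK staining, normalized to DMSO and control.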

In the next assay the target is T2, CDK9/CycT1 (Homo sapiens, UniProt P50750).
T2 construct: Recombinant full-length His-tagged human CDK9 and CycT1; purchased Life Technologies PV4131; host or cells: insect cells
T2 sequence (P50750 whole entry): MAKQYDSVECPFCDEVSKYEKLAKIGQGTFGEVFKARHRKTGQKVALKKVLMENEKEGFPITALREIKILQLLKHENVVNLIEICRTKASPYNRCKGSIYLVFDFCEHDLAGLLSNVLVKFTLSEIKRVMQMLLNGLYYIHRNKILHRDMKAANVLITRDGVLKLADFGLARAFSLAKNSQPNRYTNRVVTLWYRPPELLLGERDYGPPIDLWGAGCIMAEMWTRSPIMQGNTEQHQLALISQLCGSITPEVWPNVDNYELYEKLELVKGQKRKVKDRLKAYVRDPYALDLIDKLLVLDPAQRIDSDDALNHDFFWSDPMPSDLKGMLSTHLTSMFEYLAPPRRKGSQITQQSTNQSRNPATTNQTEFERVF
T2 sequence (O60563 whole entry partner): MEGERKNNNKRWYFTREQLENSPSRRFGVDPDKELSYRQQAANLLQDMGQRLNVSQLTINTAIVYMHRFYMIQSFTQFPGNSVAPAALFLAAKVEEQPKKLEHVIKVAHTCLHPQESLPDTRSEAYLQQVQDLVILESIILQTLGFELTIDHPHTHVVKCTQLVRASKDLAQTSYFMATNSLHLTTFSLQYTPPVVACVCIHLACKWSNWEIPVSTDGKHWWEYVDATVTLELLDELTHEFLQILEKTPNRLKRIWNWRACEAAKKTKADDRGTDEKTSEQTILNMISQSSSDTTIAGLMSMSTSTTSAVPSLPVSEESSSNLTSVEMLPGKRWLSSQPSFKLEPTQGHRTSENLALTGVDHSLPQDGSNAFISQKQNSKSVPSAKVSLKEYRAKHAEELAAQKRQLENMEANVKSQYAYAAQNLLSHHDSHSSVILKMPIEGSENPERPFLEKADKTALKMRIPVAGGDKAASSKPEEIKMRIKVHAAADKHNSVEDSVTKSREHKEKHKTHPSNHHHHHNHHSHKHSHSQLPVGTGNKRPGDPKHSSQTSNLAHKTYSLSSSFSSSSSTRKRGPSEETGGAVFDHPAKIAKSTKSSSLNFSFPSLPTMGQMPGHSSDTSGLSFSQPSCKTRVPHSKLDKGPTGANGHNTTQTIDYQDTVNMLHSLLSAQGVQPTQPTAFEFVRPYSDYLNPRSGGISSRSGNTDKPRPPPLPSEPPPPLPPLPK
Briefly: CDK9/CycT1 high ATP kinase assay (TR-FRET, 2 mM ATP). Format: biochemical. Conditions: 2 mM ATP (high ATP); median; read-out: CDK9/CyclinT1, 2 mM ATP (high ATP), IC50 (median). An outline of the steps:
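Full-length His-tagged human CDK9/CycT1 (insect cell, ~0.5 μg/mL) preincubated 15 min at 22 °C with compound in Tris pH 8.0, MgCl2, DTT buffer before reaction with biotinylated peptide substrate at high ATP (2 mM).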

Bounds are passed on as bounds.

T1 sequence (O75909 whole entry): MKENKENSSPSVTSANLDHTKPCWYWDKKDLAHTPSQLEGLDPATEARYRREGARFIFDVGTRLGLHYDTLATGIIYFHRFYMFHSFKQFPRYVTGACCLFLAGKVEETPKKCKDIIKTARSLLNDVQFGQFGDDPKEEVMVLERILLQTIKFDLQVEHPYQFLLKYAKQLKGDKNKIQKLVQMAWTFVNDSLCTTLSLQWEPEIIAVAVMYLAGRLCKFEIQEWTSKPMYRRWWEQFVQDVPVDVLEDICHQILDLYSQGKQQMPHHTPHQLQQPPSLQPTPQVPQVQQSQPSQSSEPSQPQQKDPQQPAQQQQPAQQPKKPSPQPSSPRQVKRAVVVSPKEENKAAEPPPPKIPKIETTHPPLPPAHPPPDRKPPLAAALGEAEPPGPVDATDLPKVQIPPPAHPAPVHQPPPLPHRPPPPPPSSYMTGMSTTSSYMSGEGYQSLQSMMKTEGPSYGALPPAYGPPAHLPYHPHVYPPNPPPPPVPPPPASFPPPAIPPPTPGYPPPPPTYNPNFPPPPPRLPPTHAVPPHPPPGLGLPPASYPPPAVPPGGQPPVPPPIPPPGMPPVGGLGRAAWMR
T1 sequence (Q9NYV4 whole entry partner): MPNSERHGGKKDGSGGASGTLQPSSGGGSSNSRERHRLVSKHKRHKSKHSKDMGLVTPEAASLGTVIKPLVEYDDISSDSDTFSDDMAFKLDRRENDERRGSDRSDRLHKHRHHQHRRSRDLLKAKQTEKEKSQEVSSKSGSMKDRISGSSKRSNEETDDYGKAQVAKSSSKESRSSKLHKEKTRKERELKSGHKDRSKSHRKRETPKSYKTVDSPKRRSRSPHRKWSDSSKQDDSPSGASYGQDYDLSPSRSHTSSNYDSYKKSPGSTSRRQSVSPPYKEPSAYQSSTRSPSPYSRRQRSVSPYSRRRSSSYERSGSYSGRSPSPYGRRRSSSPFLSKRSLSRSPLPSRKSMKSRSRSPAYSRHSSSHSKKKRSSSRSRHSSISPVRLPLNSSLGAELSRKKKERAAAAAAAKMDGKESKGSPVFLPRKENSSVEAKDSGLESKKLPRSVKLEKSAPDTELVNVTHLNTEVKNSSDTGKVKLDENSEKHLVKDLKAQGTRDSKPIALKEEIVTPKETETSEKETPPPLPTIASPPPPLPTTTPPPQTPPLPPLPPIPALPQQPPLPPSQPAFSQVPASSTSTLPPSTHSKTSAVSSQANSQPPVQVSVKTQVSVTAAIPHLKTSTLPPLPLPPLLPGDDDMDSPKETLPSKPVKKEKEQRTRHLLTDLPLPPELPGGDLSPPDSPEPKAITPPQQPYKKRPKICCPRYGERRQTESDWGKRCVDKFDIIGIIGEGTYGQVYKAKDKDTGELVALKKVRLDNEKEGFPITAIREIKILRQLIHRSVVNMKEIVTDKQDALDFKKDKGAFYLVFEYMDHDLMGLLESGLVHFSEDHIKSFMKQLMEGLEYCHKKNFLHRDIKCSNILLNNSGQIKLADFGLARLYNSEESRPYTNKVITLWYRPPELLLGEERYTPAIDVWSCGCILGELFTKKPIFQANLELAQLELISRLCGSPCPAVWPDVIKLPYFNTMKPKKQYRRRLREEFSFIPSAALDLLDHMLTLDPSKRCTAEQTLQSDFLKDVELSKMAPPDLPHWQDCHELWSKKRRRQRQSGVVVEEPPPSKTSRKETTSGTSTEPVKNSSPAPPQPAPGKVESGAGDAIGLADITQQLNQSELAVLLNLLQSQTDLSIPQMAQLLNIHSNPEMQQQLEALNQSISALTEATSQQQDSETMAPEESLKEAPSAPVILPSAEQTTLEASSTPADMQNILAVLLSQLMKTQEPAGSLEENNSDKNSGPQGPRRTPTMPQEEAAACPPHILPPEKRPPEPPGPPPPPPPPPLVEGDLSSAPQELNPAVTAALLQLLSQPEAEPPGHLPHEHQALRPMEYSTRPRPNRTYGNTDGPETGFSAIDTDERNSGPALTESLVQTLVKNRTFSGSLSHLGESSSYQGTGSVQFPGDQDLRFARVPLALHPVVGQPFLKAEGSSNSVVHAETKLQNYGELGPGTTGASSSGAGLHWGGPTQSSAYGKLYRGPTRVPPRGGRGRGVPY

Turning to `N[C@H]1CCN(c2nc(NCc3nc4ccccc4[nH]3)n3ncc(Br)c3n2)C1` [Example 245, 2-[(3S)-3-aminopyrrolidin-1-yl]-N-[(1H-benzimidazol-2-yl)methyl]-8-bromopyrazolo[1,5-a][1,3,5]triazin-4-amine], the DC50 in assay [1] was 0.000627 µM. Besides, the IC50 on CDK9/CycT1 was > 20 µM. As to `Brc1cnn2c(NCc3nc4ccccc4[nH]3)nc(N3CC4CCNC4C3)nc12` (stereo not drawn) [Example 271, 2-(2,3,3a,4,6,6a-hexahydro-1H-pyrrolo[2,3-c]pyrrol-5-yl)-N-(1H-benzimidazol-2-ylmethyl)-8-bromo-pyrazolo[1,5-a][1,3,5]triazin-4-amine], in assay [1], the DC50 came to 0.00121 µM. Also, the IC50 on CDK9/CycT1 is > 20 µM. The matching figures for `N[C@H]1[C@@H]2C[C@H]1CN(c1nc(NCc3nc4ccccc4[nH]3)n3ncc(Br)c3n1)C2` [Example 288, 2-[(1R,5S,6r)-6-amino-3-azabicyclo[3.1.1]heptan-3-yl]-N-[(1H-benzimidazol-2-yl)methyl]-8-bromopyrazolo[1,5-a][1,3,5]triazin-4-amine]: 0.000418 µM and > 20 µM.

In the case of `Brc1cnn2c(NCc3nc4ccccc4[nH]3)nc(N3C[C@@H]4CN[C@@H]4C3)nc12.O=C(O)C(F)(F)F` [Example 267, trifluoroacetic acid-N-[(1H-benzimidazol-2-yl)methyl]-8-bromo-2-[(1S,5S)-3,6-diazabicyclo[3.2.0]heptan-3-yl]pyrazolo[1,5-a][1,3,5]triazin-4-amine (1/1)], the IC50 at CDK9/CycT1 is > 20 µM. `C[C@@H]1CN(c2nc(NCc3nc4ccccc4[nH]3)n3ncc(C4CC4)c3n2)C[C@H](C)N1` [Example 248, N-[(1H-benzimidazol-2-yl)methyl]-8-cyclopropyl-2-[(3R,5S)-3,5-dimethylpiperazin-1-yl]pyrazolo[1,5-a][1,3,5]triazin-4-amine]: the DC50 in assay [1] turned out to be 0.000648 µM. Also, at CDK9/CycT1, the IC50 is > 20 µM.

For the compound `Fc1ccc2[nH]c(CNc3nc(N4CCOCC4)nc4c(C5CCOCC5)cnn34)nc2c1F` [Example 276, N-[(4,5-difluoro-1H-benzimidazol-2-yl)methyl]-2-(morpholin-4-yl)-8-(oxan-4-yl)pyrazolo[1,5-a][1,3,5]triazin-4-amine], at CDK9/CycT1, the IC50 was > 20 µM. With `Brc1cnn2c(NCc3nc4ccccc4[nH]3)nc(NCC3CC3)nc12` [Example 284, N^4-[(1H-benzimidazol-2-yl)methyl]-8-bromo-N^2-(cyclopropylmethyl)pyrazolo[1,5-a][1,3,5]triazine-2,4-diamine], the IC50 on CDK9/CycT1 is > 20 µM.

`CC1CN(C)CCN1c1nc(NCc2nc3ccccc3[nH]2)n2ncc(Br)c2n1` (single isomer, unassigned; enantiomer 2) [Example 261, N-(1H-benzimidazol-2-ylmethyl)-8-bromo-2-[(2R or S)-2,4-dimethylpiperazin-1-yl]pyrazolo[1,5-a][1,3,5]triazin-4-amine (Enantiomer 2)]: the DC50 in assay [1] turned out to be 0.00123 µM. For the same compound, at CDK9/CycT1, the IC50 was > 20 µM. As to `OCC1CN(c2nc(NCc3nc4ccccc4[nH]3)n3ncc(Br)c3n2)C1` [Example 304, [1-(4-{[(1H-benzimidazol-2-yl)methyl]amino}-8-bromopyrazolo[1,5-a][1,3,5]triazin-2-yl)azetidin-3-yl]methanol], the DC50 in assay [1] worked out at 0.0124 µM. Further, the IC50 on CDK9/CycT1 was > 20 µM. In the case of `Brc1cnn2c(NCc3nc4cccnc4[nH]3)nc(N3CCNCC3)nc12.O=CO` [Example 19, 8-bromo-N-[(3H-imidazo[4,5-b]pyridin-2-yl)methyl]-2-(piperazin-1-yl)pyrazolo[1,5-a][1,3,5]triazin-4-amine formic acid salt], on CDK9/CycT1, the IC50 was > 20 µM. As to `Brc1cnn2c(NCc3nc4ccccc4[nH]3)nc(N3CCC4(CCN4)CC3)nc12` [Example 291, N-[(1H-benzimidazol-2-yl)methyl]-8-bromo-2-(1,7-diazaspiro[3.5]nonan-7-yl)pyrazolo[1,5-a][1,3,5]triazin-4-amine], the DC50 in assay [1] was 0.01 µM. Besides, at CDK9/CycT1, the IC50 was > 20 µM. As to `Brc1cnn2c(NCc3nc4ccccc4[nH]3)nc(N3C[C@H]4CN[C@H]4C3)nc12.O=C(O)C(F)(F)F` [Example 255, trifluoroacetic acid-N-[(1H-benzimidazol-2-yl)methyl]-8-bromo-2-[(1R,5R)-3,6-diazabicyclo[3.2.0]heptan-3-yl]pyrazolo[1,5-a][1,3,5]triazin-4-amine (1/1)], the IC50 on CDK9/CycT1 was > 20 µM. Take `CC(C)CNc1nc(NCc2nc3ccccc3[nH]2)n2ncc(Br)c2n1` [Example 285, N^4-[(1H-benzimidazol-2-yl)methyl]-8-bromo-N^2-(2-methylpropyl)pyrazolo[1,5-a][1,3,5]triazine-2,4-diamine]: in assay [1], the DC50 was determined as 0.00346 µM. The IC50 on CDK9/CycT1 was > 20 µM. The matching figures for `Cc1cc2nc(CNc3nc(N4CCN(C)CC4)nc4c(C5CC5)cnn34)[nH]c2cc1C` [Example 312, 8-cyclopropyl-N-[(5,6-dimethyl-1H-benzimidazol-2-yl)methyl]-2-(4-methylpiperazin-1-yl)pyrazolo[1,5-a][1,3,5]triazin-4-amine]: 0.000518 µM and > 20 µM. The like results for `CN(CC(C)(C)O)c1nc(NCc2nc3cc(Cl)c(Cl)cc3[nH]2)n2ncc(C3CC3)c2n1` [Example 306, 1-[(8-cyclopropyl-4-{[(5,6-dichloro-1H-benzimidazol-2-yl)methyl]amino}pyrazolo[1,5-a][1,3,5]triazin-2-yl)(methyl)amino]-2-methylpropan-2-ol] were, in that order, 0.000642 µM and > 20 µM. On to `c1ccc2[nH]c(CNc3nc(N4C[C@@H]5CCCN[C@@H]5C4)nc4c(C5CC5)cnn34)nc2c1` [Example 249, N-[(1H-benzimidazol-2-yl)methyl]-8-cyclopropyl-2-[(4aS,7aS)-octahydro-6H-pyrrolo[3,4-b]pyridin-6-yl]pyrazolo[1,5-a][1,3,5]triazin-4-amine], for which, at CDK9/CycT1, the IC50 is > 20 µM. For the compound `NC1(C(F)(F)F)CCN(c2nc(NCc3nc4ccccc4[nH]3)n3ncc(Br)c3n2)C1` (stereo not drawn) [Example 266, 2-[3-amino-3-(trifluoromethyl)pyrrolidin-1-yl]-N-(1H-benzimidazol-2-ylmethyl)-8-bromo-pyrazolo[1,5-a][1,3,5]triazin-4-amine], the IC50 on CDK9/CycT1 was > 20 µM. The same measure, in the same setting: to `Brc1cnn2c(NCc3nc4c([nH]3)CCCC4)nc(N3CCOCC3)nc12` [Example 21, 8-bromo-2-(morpholin-4-yl)-N-[(4,5,6,7-tetrahydro-1H-benzimidazol-2-yl)methyl]pyrazolo[1,5-a][1,3,5]triazin-4-amine] belongs > 20 µM; to `COc1cccc2[nH]c(CNc3nc(N4CCOCC4)nc4c(CC(F)(F)F)cnn34)nc12` [Example 277, N-[(4-methoxy-1H-benzimidazol-2-yl)methyl]-2-(morpholin-4-yl)-8-(2,2,2-trifluoroethyl)pyrazolo[1,5-a][1,3,5]triazin-4-amine], > 20 µM; to `NC12CC1CN(c1nc(NCc3nc4ccccc4[nH]3)n3ncc(Br)c3n1)C2` (stereo not drawn) [Example 258, 2-(1-amino-3-azabicyclo[3.1.0]hexan-3-yl)-N-(1H-benzimidazol-2-ylmethyl)-8-bromo-pyrazolo[1,5-a][1,3,5]triazin-4-amine], > 20 µM. The same measure, in the same setting: to `CN(CC1CC1)c1nc(NCc2nc3ccccc3[nH]2)n2ncc(Br)c2n1` [Example 287, N^4-[(1H-benzimidazol-2-yl)methyl]-8-bromo-N^2-(cyclopropylmethyl)-N^2-methylpyrazolo[1,5-a][1,3,5]triazine-2,4-diamine] belongs > 20 µM. Consider `CC1(O)CCN(c2nc(NCc3nc4ccccc4[nH]3)n3ncc(Br)c3n2)C1` (single isomer, unassigned) [Example 282, (3R or S)-1-(4-{[(1H-benzimidazol-2-yl)methyl]amino}-8-bromopyrazolo[1,5-a][1,3,5]triazin-2-yl)-3-methylpyrrolidin-3-ol], for which the IC50 on CDK9/CycT1 was > 20 µM. Regarding `N[C@H]1CN(c2nc(NCc3nc4ccccc4[nH]3)n3ncc(Br)c3n2)CC12CC2` [Example 259, 2-[(7R)-7-amino-5-azaspiro[2.4]heptan-5-yl]-N-[(1H-benzimidazol-2-yl)methyl]-8-bromopyrazolo[1,5-a][1,3,5]triazin-4-amine], the IC50 on CDK9/CycT1 amounted to 7.37 µM. On to `Brc1cnn2c(NCc3nc4ccccc4[nH]3)nc(N3C[C@H]4CC[C@@H]3CN4)nc12` (single isomer, unassigned) [Example 316, N-[(1H-benzimidazol-2-yl)methyl]-8-bromo-2-{[1R or S-(1R*4R*)]-2,5-diazabicyclo[2.2.2]octan-2-yl}pyrazolo[1,5-a][1,3,5]triazin-4-amine], for which the IC50 at CDK9/CycT1 was 12.9 µM. Regarding `CN1CCN(c2nc(NCc3nc4ccccc4[nH]3)n3ncc(Br)c3n2)C(CO)C1` (single isomer, unassigned) [Example 280, [(2R or S)-1-(4-{[(1H-benzimidazol-2-yl)methyl]amino}-8-bromopyrazolo[1,5-a][1,3,5]triazin-2-yl)-4-methylpiperazin-2-yl]methanol], the IC50 on CDK9/CycT1 is > 20 µM. The same measure, in the same setting: then `Brc1cnn2c(NCc3nc4ccncc4[nH]3)nc(N3CCOCC3)nc12` [Example 22, 8-bromo-N-[(3H-imidazo[4,5-c]pyridin-2-yl)methyl]-2-(morpholin-4-yl)pyrazolo[1,5-a][1,3,5]triazin-4-amine], with > 18.4 µM.
